According to PubChem BioAssay AID434955 (Southern Research Specialized Biocontainment Screening …, 2010):

system: M. tuberculosis H37Rv growth with meropenem, percent inhibition; assay: beta-lactam sensitization of Mtb H37Rv, H37Rv (AID 434955)

| SMILES | IC90 [µM] |
| --- | --- |
| Cc1ccc(-c2[nH][nH]c(=O)c(=O)c2N=Nc2ccccc2)cc1 | 86.2 |
| C/C(=N/NC(=O)c1cccs1)c1c(C)[nH]n(-c2nc3ccccc3s2)c1=O | 1.58 |
| COc1cc(/C(C)=N\NC(N)=S)cc(OC)c1OC | 19.6 |
| S=C(NN=C1C2CC3CC(C2)CC1C3)Nc1ccccc1 | 51.4 |
| O=C(NCCC1=CCCCC1)c1ccc(Cl)c([N+](=O)[O-])c1 | 30.2 |
| O=C(Nc1nc2ccccc2n1CCN1CCCC1)C1CCCCC1 | 27.5 |
| Cc1nnnn1/C(=C\c1ccccc1)C(=O)OCC(=O)Nc1ccc(Cl)cc1F | 25.5 |
| CCCOc1ccccc1NC(=O)/C=C/C(N)=O | 27.7 |
| Cc1noc(NS(=O)(=O)c2ccc(N/C=C\C(=O)c3ccc4c(c3)OCO4)cc2)c1C | 86 |
| CCN(CC)c1ccc(CN2CCCCCC2)cc1 | 49.4 |
| Cn1c(/C=N/c2nc3ccccc3[nH]2)nc2ccccc21 | 4.17 |
| O=C(O)CSc1ncnc2c1sc1nc(-c3ccccc3)c3c(c12)CCC3 | 14.2 |
| Cc1cc(C)cc(OCC(=O)NNC(=O)c2ccccn2)c1 | 16 |
| CCOC(=O)C1CSC(CC(=O)Nc2ccc(Cl)c(Cl)c2)C(=O)N1 (configuration not stated) | 35.4 |
| Cc1ccccc1CSc1nnc(C)c(=O)n1N | 32.3 |
| CC(C)(C)NCCCOc1ccc(Cl)cc1C(C)(C)C | 26.9 |
| CCOC(=O)c1c(C)[nH]c(C)c1C(=O)COC(=O)/C=C/c1ccc(OC(F)F)cc1 | 91.4 |
| CCOC(=O)N1CCN(C(=O)CSc2nnc(COc3ccccc3)o2)CC1 | 18.4 |
| Cc1cccc(Nc2nnc(SCC(=O)Nc3ncc(C(F)(F)F)cc3Cl)s2)c1C | 21.5 |
| COc1cccc(/C=N/NC(=O)c2cnccn2)c1O | 13.9 |
| COc1cc(CNCCO)cc(Br)c1OCc1ccccc1Cl | 52.7 |
| CC12CCC(C/C1=N\N=C1\NC(=O)/C(=C\c3cccc(Br)c3)S1)C2(C)C (configuration not stated) | 37.7 |
| Cc1cc(=S)nc(-c2ccccn2)[nH]1 | 19.7 |
| C/C(CC(=O)Nc1c(C)cc(C)cc1C)=N\NC(=O)c1cnccn1 | 17.4 |

| SMILES | IC90 [µM] |
| --- | --- |
| Cn1ccnc1C(=O)Cc1ccc([N+](=O)[O-])cc1 | 22.6 |
| O=C1c2ccccc2N2C(=O)c3ccccc3C2N1O (configuration not stated) | 56.4 |
| O=C(Oc1c(-c2ccccc2)c(=O)n2c3c(cccc13)CC2)c1ccc(F)cc1 | 34 |
| Cc1ccc(S(=O)(=O)Nc2cccc3cccnc23)c([N+](=O)[O-])c1 | 4.7 |
| O=C(OCn1nnc2ccccc2c1=O)c1ccc2c(=O)n3c(nc2c1)CCC3 | 26.1 |
| CN(C)/N=C/c1ccc(/C=N/NC(N)=S)o1 | 43.3 |
| Cc1nnnn1/C(=C\c1ccccc1)C(=O)OCC(=O)NC1CCCCC1 | 17.6 |
| Cc1ccccc1OCC(=O)Nc1ccccc1N1CCCCC1 | 13.5 |
| CN(C(=O)Nc1ccc(Cl)cc1)n1cnc2ccccc2c1=O | 48.6 |
| CN1CCN(c2ccc(NC(=O)c3ccc(-c4cccc([N+](=O)[O-])c4)o3)cc2)CC1 | 6.71 |
| CCOc1ccc(S(=O)(=O)N(C(=O)c2ccco2)c2cc3sc(=O)oc3c3ccccc23)cc1 | 46.9 |
| Cc1ccc(C)c(N2CCN(C3CCCC(C)C3)CC2)c1 (configuration not stated) | 48.2 |
| CCc1cc2c(-c3ccccc3)cc(=O)oc2cc1OC(C)C(C)=O (configuration not stated) | 48.5 |
| CC1CCN(CC(CS(=O)(=O)c2ccc([N+](=O)[O-])cc2)N2CCC(C)CC2)CC1 (configuration not stated) | 31.5 |
| Cc1c(C(=O)NCCC2=CCCCC2)sc2ncnc(N3CCCCC3C)c12 (configuration not stated) | 52 |
| O=C(CN1CCC(O)(c2ccc3c(c2)OCO3)CC1)OC1CCCCC1 | 35.3 |
| CCOC(=O)c1c(C)n(-c2ccccc2)c2ccc(OCCN(C)C)cc12 | 21.7 |
| C=CCNCCCOc1ccc(Cl)cc1C(C)(C)C | 52.6 |
| CCC(=O)N1CCN(c2ccc(NC(=S)NC(=O)c3ccc(OC)c([N+](=O)[O-])c3)cc2)CC1 | 67.8 |
| Cc1ccc(C)c(CSc2nnc(C)c(=O)n2N)c1 | 20.4 |
| Nc1ccc(N=Nc2ccccc2O)c(N)c1 | 34 |
| c1ccc2c(c1)Cn1nc(Cc3nc4c(s3)CCCC4)nc1-2 | 53 |
| COc1cccc(C(=O)C2CCCN(Cc3ccccn3)C2)c1 (configuration not stated) | 97.5 |
| O=C(NN1C(=O)c2cc(Br)ccc2NC1c1ccccc1Cl)c1ccncc1 (configuration not stated) | 13.7 |

| SMILES | IC90 [µM] |
| --- | --- |
| O=C(Cc1cccc2ccccc12)N/N=C/c1ccc(O)c([N+](=O)[O-])c1 | 31.6 |
| Cc1ccc(CN2C(=O)N/C(=C\c3ccc(-c4ccc(C(=O)O)cc4C)o3)C2=O)cc1 | 14.7 |
| Cn1c(=O)c2ccccc2n2c(CCl)nnc12 | 4.65 |
| COc1ccc(OC)c(NC(=O)CS(=O)(=O)c2ccccc2)c1 | 14.3 |
| CC(C)C1CC(CCNCc2ccc(N(C)C)cc2)(c2ccccc2)CCO1 (configuration not stated) | 26.9 |
| Cc1ccc(C2=N/C(=C\c3cccc(F)c3)C(=O)O2)cc1 | 4.02 |
| CCCCCCCN(C(=O)CCl)c1ccccc1C | 35.2 |
| CCCCNC(=O)c1onc(CSc2ccc(F)c(F)c2)c1C(=O)O | 56.8 |
| CN1C/C(=N\S(=O)(=O)c2ccccc2)N(C)C1=O | 33.7 |
| Cc1nn(-c2ccccc2)c(Cl)c1CN(C(=O)CCl)c1cccc2ccccc12 | 48.2 |
| O=C(CCSc1ccc(Cl)c(Cl)c1)NC12CC3CC(CC(C3)C1)C2 | 12.3 |
| O=C1COc2ccc(C(=O)/C=C/c3ccccc3)cc2N1 | 12.2 |
| O=C(COC(=O)c1ccc(Cl)cc1[N+](=O)[O-])NNC(=O)c1cccs1 | 51.1 |
| CCOC(=O)c1ccc(C(=O)NNC(=O)C2CC=CCC2)cc1 (configuration not stated) | 40 |
| Cc1cccc2c(C(=O)n3cccn3)cc(-c3ccccc3Cl)nc12 | 26.8 |
| C=CCN=c1scc(-c2ccc(F)cc2)n1/N=C/c1ccccn1 | 71.7 |
| O=C(CCCCCN1C(=O)c2cccc([N+](=O)[O-])c2C1=O)Nc1ccccc1F | 44.1 |
| O=c1cc(C(F)(F)F)c2sc(N3CCCCC3)nc2[nH]1 | 49.3 |
| CCOC(=O)CNC(=O)/C(=C\c1ccc(F)cc1)NC(=O)c1ccccc1 | 35.1 |
| COc1ccc(-c2cc(=Nc3ccc(C)cc3)c3ccccc3o2)cc1 | 98.3 |
| CC1CCN(C(=S)NC(=O)c2ccccc2)CC1 | 13.6 |
| CC(C)(C)c1ccc(C(=O)Oc2ccc3c(c2)OCC3=O)cc1 | 29.4 |
| C=C(C)C1Cc2c(C)nn(-c3cccc4ccccc34)c2C1 (configuration not stated) | 47.4 |
| CCCCN=C1CC(C)(C)CC(=O)/C1=C(/O)CCC | 28.7 |

| SMILES | IC90 [µM] |
| --- | --- |
| COc1ccccc1NS(=O)(=O)c1cccc(N2CC(O)=C(c3ccccc3)C2=N)c1 | 16 |
| CN(C)S(=O)(=O)c1ccc(C(=O)/C=C/c2cccnc2)cc1 | 12.1 |
| COc1ccccc1C(c1c(N)n(C)c(=O)n(C)c1=O)C(C)[N+](=O)[O-] (configuration not stated) | 18 |
| CCN(CC)C(=O)CSc1nnc2nnc3cc(OC)ccc3n12 | 13.4 |
| Nc1ncnc2c1c(-c1ccc(Oc3ccccc3)cc1)cn2C1CCCC1 | 60.3 |
| COCCSc1nc2sc3c(c2c(=O)n1-c1ccccc1)CCN(C)C3 | 53.3 |
| O=C(NCC1COc2ccccc2O1)C1CCC(CNc2c(N3CCCCC3)c(=O)c2=O)CC1 (configuration not stated) | 26.7 |
| Cn1nnnc1Sc1ncnc2scc(-c3ccc(C(F)(F)F)cc3)c12 | 15 |
| CCCc1cc(C(=O)Nc2ccc(C(C)=O)cc2)no1 | 48.8 |
| Cc1ccc(SCCNC(=O)c2ccc(C)c([N+](=O)[O-])c2)cc1 | 54 |
| Cc1onc(-c2ccccc2Cl)c1C(=O)NCc1ccc2c(c1)cc(C)n2C | 29.4 |
| COc1ccc(-n2cc(-c3ccccc3)c3c(NN4CCOCC4)ncnc32)cc1 | 36.1 |
| Cc1ccc(C)c(N2CCN(CC3CCCCC3)CC2)c1 | 52.4 |
| CCCCCn1c(=O)c(C(=O)Nc2cnccn2)c(O)c2ccccc21 | 13.8 |
| O=C1OC(/C=C/c2ccc(Cl)cc2Cl)=NC/1=C\c1cccs1 | 33.4 |
| N#Cc1c(SCC(=O)O)nc(N2CCCCC2)c2c1CCCC2 | 27 |
| COc1ccc(/C=C/C(=O)N(C(C)C)C(C)C)cc1Br | 96.4 |
| CC(C)C[C@H](NC(=O)c1nc[nH]c1C(=O)N1CCN(C(=O)OC(C)(C)C)CC1)C(=O)OCc1ccccc1 | 54.9 |
| CCCOc1ccc(C(=O)CCN2CCCCC2)cc1 | 36.4 |
| COCCNC(=S)N/N=C1\CC(C)CC(C)(C)C1 (configuration not stated) | 27.5 |
| O=C(c1ccc(-c2ccc(Cl)cc2)o1)N1CCN(S(=O)(=O)c2cccs2)CC1 | 99.6 |
| O=C(CSc1nnc(-c2ccncc2)o1)c1cccc([N+](=O)[O-])c1 | 45.4 |
| Cc1ccccc1OCC(=O)N/N=C/c1cccc(Oc2ccc([N+](=O)[O-])cc2[N+](=O)[O-])c1 | 5.4 |
| Cc1nnc(SCc2cccc(Cl)c2)n(N)c1=O | 10.1 |

| SMILES | IC90 [µM] |
| --- | --- |
| COC(=O)c1sc(-c2ccc(Cl)cc2)cc1NC(=O)COCC(=O)O | 44.8 |
| CC1CCc2c(sc(NC(=O)CCCn3cnc([N+](=O)[O-])n3)c2C(N)=O)C1 (configuration not stated) | 90.4 |
| Cc1onc(NC(=O)c2ccc([N+](=O)[O-])o2)c1Br | 16.4 |
| C=CCSc1nc2c(c(-c3ccsc3)c1C#N)CN(C)CC2 | 55.1 |
| COc1cc(C(=O)Nc2cccc(-c3cn4cccnc4n3)c2)cc(OC)c1OC | 30.2 |
| Cc1cc(Br)ccc1NC(=O)CN1C(=O)C2CC=CCC2C1=O (configuration not stated) | 38.7 |
| Cc1cc(C)c(-c2c(O)c3ccccc3n(C)c2=O)c(C)c1 | 42.2 |
| Cc1cc(C=C2C(=O)NC(=S)NC2=O)c(C)n1-c1ccc2c(c1)OCO2 | 14.5 |
| CC(C)CC(=O)N1CCN(c2ccc([N+](=O)[O-])c(NCc3ccccc3)c2)CC1 | 48.6 |
| COc1ccc(OC)c(-c2cc(C(=O)Nc3c(C)n(C)n(-c4ccccc4)c3=O)no2)c1 | 49.5 |
| Cc1cc(C)c(OCC(=O)Nc2nc3ccccc3[nH]2)c(C)c1 | 65.2 |
| Cc1ccc(C)c(SCc2noc(C(=O)NCC3CCCO3)c2C(=O)O)c1 (configuration not stated) | 48 |
| Cn1c(SCC(=O)OC2CCCCC2)nnc1-c1ccc2c(c1)OCO2 | 34.9 |
| COCc1cc(=O)n2[nH]cc(-c3ccccc3)c2n1 | 15.5 |
| c1ccc(-n2c3ccccc3c3ccccc32)cc1 | 22.7 |
| O=C(CSc1ncn[nH]1)Nc1cccc2ccccc12 | 65 |
| Cc1c(OCc2ccc(C(=O)O)cc2)ccc2c(-c3ccccc3)cc(=O)oc12 | 2.09 |
| CCCOc1ccc(C(=O)N/N=C/c2ccc(-c3ccc(S(=O)(=O)Nc4ncccn4)cc3)o2)cc1 | 26.1 |
| CCOC(=O)N1CCN(CC(=O)Nc2nnc(C(F)(F)F)s2)CC1 | 50.1 |
| O=C1CS/C(=N/N=C2C3CC4CC(C3)CC2C4)N1 | 13.8 |
| Cc1ccc(C)c(N2CCN(CC3CC=CCC3)CC2)c1 (configuration not stated) | 60.7 |
